Experiments:
subjects = experiment: Liver injury as change in liver enzymes (ALT, AST) after 57 days' treatment, subjects grouped by MTHFR C677T genotype; assay type: in vivo, human; conditions: for Significant change in ALT (number of subjects): (ALT day 57-ALT day 0)/ALT day 0>15%
Description: In our clinical epidemiology study, we classified subjects into 677CC, 677CT, and 677TT groups based on the MTHFR C677T genotype. Each subject was treated with ENAZEPRIL alone or combined with folate for 57 consecutive days. Pre-treatment and post-treatment liver enzymes (ALT and AST) were measured. The MTHFR C677T polymorphism can affect the degree of liver injury induced by ACEI medicine combined with folate. […] Remarkably, given the combination therapy, Subjects with MTHFR 677CC genotype tend to have greater increase in ALT and AST, but subjects with MTHFR 677TT genotype tend to have less increase in ALT and AST. Subjects with MTHFR 677CT genotype fell in-between.
In our clinical epidemiology study, we classified subjects into 677CC, 677CT, and 677TT groups based on the MTHFR C677T genotype. Each subject was treated with ENAZEPRIL alone or combined with folate for 57 consecutive days. Pre-treatment and post-treatment liver enzymes (ALT and AST) were measured.

hypertensive patients [1] = experiment: Change in plasma Hcy level after 57 days' treatment, hypertensive patients grouped by MTHFR A1298C genotype; assay type: in vivo, human; conditions: for β(SE) of change in Hcy level: adjusted for sex, age, BMI, smoking, drinking, baseline Hcy; for Mean change in Hcy level: plasma, Day 57 − Day 0
Description: In our clinical epidemiology study, we classified hypertensive patients into 1298AA, 1298AC, and 1298CC groups based on the genotype of MTHFR A1298C polymorphism. Each subject was treated with ACEI medicine alone or combined with folate for 57 consecutive days. Pre-treatment and post-treatment plasma Hcy level, blood pressure (SBP/DBP), and urine albumin were measured.

hypertensive patients [2] = conditions: oral, single daily fixed dosage of 10 mg; 444 hypertensive patients; cited from earlier work
[3] = target: angiotensin converting enzyme I (Homo sapiens, UniProt P12821); conditions: cited from earlier work
angiotensin converting enzyme I, sequence (P12821 30-1306): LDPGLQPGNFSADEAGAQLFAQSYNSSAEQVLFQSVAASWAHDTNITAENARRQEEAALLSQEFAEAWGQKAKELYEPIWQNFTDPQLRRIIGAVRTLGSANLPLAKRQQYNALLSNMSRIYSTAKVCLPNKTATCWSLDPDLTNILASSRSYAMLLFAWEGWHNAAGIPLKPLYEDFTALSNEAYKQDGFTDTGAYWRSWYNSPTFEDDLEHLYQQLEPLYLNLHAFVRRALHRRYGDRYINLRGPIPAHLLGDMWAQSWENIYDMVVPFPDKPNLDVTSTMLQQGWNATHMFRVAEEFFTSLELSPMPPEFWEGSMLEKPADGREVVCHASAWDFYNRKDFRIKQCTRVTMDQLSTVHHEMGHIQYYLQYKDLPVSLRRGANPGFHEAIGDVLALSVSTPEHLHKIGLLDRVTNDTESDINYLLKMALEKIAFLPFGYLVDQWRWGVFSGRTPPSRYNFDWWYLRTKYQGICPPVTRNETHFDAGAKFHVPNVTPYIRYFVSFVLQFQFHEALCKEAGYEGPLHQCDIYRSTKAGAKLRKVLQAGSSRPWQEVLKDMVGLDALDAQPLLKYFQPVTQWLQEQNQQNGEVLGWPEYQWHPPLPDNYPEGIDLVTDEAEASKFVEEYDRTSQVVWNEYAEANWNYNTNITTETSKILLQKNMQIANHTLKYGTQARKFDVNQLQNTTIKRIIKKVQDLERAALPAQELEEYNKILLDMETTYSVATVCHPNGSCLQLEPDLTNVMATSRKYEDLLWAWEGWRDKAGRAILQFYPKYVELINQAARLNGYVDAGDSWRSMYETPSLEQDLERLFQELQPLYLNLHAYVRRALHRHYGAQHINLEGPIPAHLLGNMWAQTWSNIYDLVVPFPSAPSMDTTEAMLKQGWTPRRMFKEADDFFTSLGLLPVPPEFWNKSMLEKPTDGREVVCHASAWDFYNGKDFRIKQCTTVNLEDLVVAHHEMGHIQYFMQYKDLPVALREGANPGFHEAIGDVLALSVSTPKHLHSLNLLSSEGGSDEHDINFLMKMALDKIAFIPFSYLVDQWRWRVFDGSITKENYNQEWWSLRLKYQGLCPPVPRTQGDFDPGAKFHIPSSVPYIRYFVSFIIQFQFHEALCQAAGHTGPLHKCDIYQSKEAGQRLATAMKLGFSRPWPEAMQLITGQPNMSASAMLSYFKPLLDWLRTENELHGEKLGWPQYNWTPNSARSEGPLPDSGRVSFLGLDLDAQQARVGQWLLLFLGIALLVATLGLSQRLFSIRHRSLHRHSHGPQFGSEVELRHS

[4] = cited from earlier work
hypertensive subjects = experiment: Change in plasma Hcy level after 57 days' treatment, hypertensive subjects grouped by MTHFR C677T genotype; assay type: in vivo, human; conditions: for Significant change in Hcy (number of subjects): (day 57 − day 0)/day 0 ≧10%; for Non-significant change in Hcy (number of subjects): relative change below 10; for β(SE) of change in Hcy level: multiple linear regression adjusted for sex, age, BMI, smoking, drinking, baseline Hcy; for Mean change in Hcy level: plasma, Day 57 − Day 0
Description: We conducted a clinical epidemiology study, in which we classified hypertensive subjects into 677CC, 677CT, and 677TT groups based on the genotypes of MTHFR C677T polymorphism. Each subject was treated with Enalapril alone or combined with folate for 57 consecutive days. Pre-treatment and post-treatment plasma Hcy level, blood pressure (SBP/DBP), and urine albumin were measured. The major findings are summarized as follow. […]

[5] = Table 19, 677CC, day 57 minus day 0
[6] = Table 19, 677CT, day 57 minus day 0
[7] = Table 19, 677TT, day 57 minus day 0

## CCOC(=O)[C@H](CCc1ccccc1)N[C@@H](C)C(=O)N1CCC[C@H]1C(=O)O [ENAZEPRIL]
subjects; 677CC
  Insignificant change in ALT (number of subjects): 20
  Significant change in ALT (number of subjects): 32
subjects; 677TT
  Insignificant change in ALT (number of subjects): 34
  Significant change in ALT (number of subjects): 14
subjects; [5]
  Mean change in ALT: 13.8 U/L
  Mean change in AST: 7.1 U/L
subjects; [6]
  Mean change in ALT: 10.1 U/L
  Mean change in AST: 5.2 U/L
subjects; [7]
  Mean change in ALT: 7.3 U/L
  Mean change in AST: 0.3 U/L
subjects; Table 20, 677CC, Day57 − Day0
  Mean change in ALT: 17.92 U/L
  Mean change in AST: 4.95 U/L
subjects; Table 20, 677CT, Day57 − Day0
  Mean change in ALT: 10.15 U/L
  Mean change in AST: 5.81 U/L
subjects; Table 20, 677TT, Day57 − Day0
  Mean change in ALT: 9.4 U/L
  Mean change in AST: 0.08 U/L
subjects; Total (CC and TT)
  Insignificant change in ALT (number of subjects): 54
  Significant change in ALT (number of subjects): 46
subjects; subjects with MTHFR 677CC genotype, Enazepril alone
  Increase in ALT and AST: greatest increase in ALT and AST
Hypertensive patients [1]; 1298AA vs 1298CC
  β(SE) of change in Hcy level: 2.3 (1.8)
Hypertensive patients [1]; 1298AC vs 1298CC
  β(SE) of change in Hcy level: 0.2 (1.5)
Hypertensive patients [1]; ENAZEPRIL alone for 57 days
  Plasma Hcy level after treatment: significantly increased level of plasma Hcy
Hypertensive patients [1]; MTHFR 1298AA
  Mean change in Hcy level: 3.0 µmol/L
Hypertensive patients [1]; MTHFR 1298AC
  Mean change in Hcy level: 1.2 µmol/L
Hypertensive patients [1]; MTHFR 1298CC
  Mean change in Hcy level: 1.1 µmol/L

## CCOC(=O)[C@H](CCc1ccccc1)N[C@H]1CCc2ccccc2N(CC(=O)O)C1=O [Benazepril]
Hypertensive patients [2]
  Change in diastolic blood pressure, TT genotype vs CT or CC genotype: significantly higher

## C[C@H](N[C@@H](CCc1ccccc1)C(=O)O)C(=O)N1CCC[C@H]1C(=O)O [Enalaprilat]
[3]
  Inhibition of angiotensin converting enzyme I compared with enalapril: powerful effect on inhibiting angiotensin converting enzyme I than enalapril

## CCOC(=O)[C@H](CCc1ccccc1)N[C@@H](C)C(=O)N1CCC[C@H]1C(=O)O [ENALAPRIL, Enalapril]
[4]; in vivo
  Half-time: 11 h
[4]; regular dosage
  Duration of blood pressure lowering effect: more than 24 hours
Hypertensive subjects; 677CC + CT
  Significant change in Hcy (number of subjects): 12
  Non-significant change in Hcy (number of subjects): 39
Hypertensive subjects; 677CT or CC
  Subjects with significant change in Hcy level: 23.3%
Hypertensive subjects; 677CT vs 677CC
  β(SE) of change in Hcy level: 0.7 (1.3)
Hypertensive subjects; 677TT genotype
  Subjects with significant change in Hcy level: 38.5%
Hypertensive subjects; 677TT vs 677CC
  β(SE) of change in Hcy level: 3.9 (1.3)
Hypertensive subjects; 677TT
  Significant change in Hcy (number of subjects): 10
  Non-significant change in Hcy (number of subjects): 16
Hypertensive subjects; Enalapril alone for 57 days
  Plasma Hcy level after treatment: increased level of plasma Hcy
Hypertensive subjects; MTHFR 677CC
  Mean change in Hcy level: -0.5 µmol/L
Hypertensive subjects; MTHFR 677CT
  Mean change in Hcy level: 1.2 µmol/L
Hypertensive subjects; MTHFR 677TT
  Mean change in Hcy level: 2.7 µmol/L
Hypertensive subjects; Total, all genotypes
  Significant change in Hcy (number of subjects): 22
  Non-significant change in Hcy (number of subjects): 55
Hypertensive subjects; overall (22/77)
  Subjects with significant change in Hcy level: 28.6%
